According to patent US8668937B2, “Topical nitric oxide systems and methods of use thereof” (Transdermal Biotechnology, Inc., priority 2011, dated 2014):
Entries after “also recorded” stand apart in the source; their conditions may differ.

Test: Nitric oxide gas bubbled through carrier, change in weight noted
Format: physicochemical
Settings: 25 °C
Experimental: This example illustrates one technique for preparing a composition in accordance with one embodiment of the invention. An accurate amount of a carrier (HNC 167-62) (see below) was introduced into a system. The carrier weight used in these experiments was approximately 250 g and the vessel size was 500 ml. The vessel was equipped with a mechanical stirrer, gas inlet, and gas outlet and was previously purged with argon for about an hour. The temperature of the carrier was kept at about 25-30° C. NO gas regulated at 5 psi (1 psi is about 6,900 Pa) and was then introduced at a controlled rate of about 1 bubble/s with continuous stirring. […] After 6 hours, the weight of the carrier had increased by 0.15%, by 12 hours by 0.25%, and by 24 hours by 0.56%. These increases in weight were believed to be significant considering the relative small molecular weight of NO versus the carrier. […] The carrier also can solidify upon cooling if the carrier is initially a solid at lower temperature.
Each carrier was taken in a 500 mL three necked flask equipped with a mechanical stirrer, gas inlet and a gas outlet. The system was purged with argon for one hour at room temperature (25° C.). Then nitric oxide gas was bubbled into the system. Then, nitric oxide gas was bubbled through carrier for stipulated amount of time. The changes in weight and color were noted. The details of individual experiments were as follows.

OCCCO [1,3-Propanediol, 1,3-propanediol]
% Wt. gain (NO gas bubbled 40 hr): 0.09%
Wt. Gain g (NO gas bubbled 40 hr): 0.16 g
weight gain when NO was passed through (in words) (neat, NO gas bubbled 40 hours): only negligible, if any, weight gain; also recorded: failed to gain any significant weight
